Source: patent US6703413B2 (Rhode Island Hospital, priority 1999, dated 2004)
Read-outs that look alike come from different tables or passages of the source.

Assays:
HT-29 colon tumor cells = test: Cell growth inhibition, 3 d exposure, cell counting; type: cell-based; details: Homo sapiens, 72 h
Protocol: (§1) One ml of this cell suspension was added to each well of a 12 well cell culture plate that contained 3 ml of appropriate media plus serum. […] Control wells received 40 μl of 5% Kollidon 17 PF alone. Seventy-two hours later, all cells were harvested by trypsinization and cell number determined electronically using a Coulter Model Z1 particle counter (Coulter Corp., Miami, Fla.) to assess cell growth inhibition. Each experiment was performed in duplicate and repeated a minimum of three times.
(§2) Cells were seeded at a density of 1-5×10^4 cells in each well of a 6 well tissue culture flask. […] After three days, cells were harvested by trypsinization and cell number determined electronically. Cell growth inhibition was determined by comparison to non-Taurolidine exposed control cultures. The IC50 was calculated as the concentration required to inhibit cell number by 50%.

MNT-1 melanoma cells = test: as above; type: cell-based; details: Homo sapiens, 72 h
Protocol: as §1, §2

A-549 lung tumor cells = test: as above; type: cell-based; details: Homo sapiens, A549, 72 h
Protocol: as §1, §2

U-251 glioma cells = test: as above; type: cell-based; details: Homo sapiens, 72 h, U-251 (brain)
Protocol: as §1, §2

H-157 lung tumor cells = test: as above; type: cell-based; details: Homo sapiens, NCI-H157, 72 h
Protocol: as §1, §2

[1] = tested on: SKOV-3 human ovarian tumor cells; test: as above; type: cell-based; details: SK-OV-3, 72 h, SKOV-3 (ovary)
Protocol: as §1, §2

SKOV-3 cells = test: PARP cleavage, Western-blot; type: cell-based, human; details: SKOV-3, 24 h exposure to 50 μM or 100 μM
Protocol: (§3) Two×10^6 cells were seeded in 150 cm^2 tissue culture flasks. […] After an additional twenty-four hours, cells were harvested, cell number determined, and aliquots derived from equal cell numbers generated from each exposure condition. Total proteins from these whole cell lysates were separated by SDS-PAGE and transferred to nitrocellulose filters. Filters were then immunoblotted to detect intact PARP protein and cleavage fragments by using the clone C-2-10 mouse monoclonal anti-PARP antibody (Zymed Laboratories, San Francisco, Calif.). The resulting protein-antibody complexes were visualized by chemiluminescence techniques.
(§4) Western-blot analysis was used to assess of PARP cleavage. Two×10^6 cells were seeded into separate 75 cm^2 tissue culture flasks containing 20 ml of tissue culture media plus serum. […] Twenty-four hours after the addition of Taurolidine, cells were harvested cell number determined, and aliquots containing an equal cell number were generated from each exposure condition. Total proteins from whole cell lysates generated from these aliquots were separated by SDS-PAGE and electrotransferred to nitrocellulose filters. Filters were then processed to detect intact PARP protein and cleavage fragments by using the clone C-2-10 mouse monoclonal anti-PARP antibody (Zymed Laboratories, San Francisco, Calif.). […]

PA-1 cells = test: PARP cleavage, Western-blot; type: cell-based, human; details: PA-1, 24 h exposure to 50 μM or 100 μM
Protocol: as §3, §4

NIH-3T3 cells = test: PARP cleavage, Western-blot; type: cell-based, murine; details: NIH-3T3, 24 h exposure to 50 or 100 μM
Protocol: as §3, §4

3T3 cells = test: DNA fragmentation, agarose-gel electrophoresis; type: cell-based; details: identical regimen, 50 μM
[2] = tested on: normal murine bone marrow cultures; test: Cytotoxic and apoptotic activity in normal primary cells; type: cell-based
Description: (§5) This observation was confirmed using normal (non-tumor) primary cells derived from animals, which are known to be free of tumors.

[3] = tested on: activated human T-cell cultures; test: as above; type: cell-based
Description: as §5

[4] = tested on: PA-1 human ovarian tumor cells; test: Phosphotidylserine externalization, Annexin-V FITC binding; type: cell-based; details: PA-1, 24 h exposure
Protocol: (§6) Three×10^5 cells were seeded in plastic tissue culture flasks. […] Control cultures received an appropriate volume of Kollidine-17P. After an additional 24 h, cells were harvested and phosphotidylserine externalization determined by assessing Annexin-V FITC binding using cytofluorometric techniques. Each bar represents the mean±SE of four determinations. ** p≦0.01, *** p0.001
(§7) Cell membrane phosphotidylserine externalization, as a reflection of the potential induction of apoptosis, was assessed by flow cytometry methods using the ApoAlert® Annexin-V/FITC assay kit. Briefly, 1×10^6 cells were incubated for 24 h in tissue culture medium containing serum. […] Control cultures received 5% Kollidon 17 PF alone. Twenty-four hours later, all cells were harvested by trypsinization. The harvested cells were resuspended in 200 μl of binding buffer and then incubated for 5-15 min in a solution containing 1 μg/ml Annexin-V FITC at room temperature in the dark. The cells were then analyzed to quantitate Annexin-V binding by cytofluorometric techniques that utilized FACScan using the ModFit LT program with statistical analysis as described above.

[5] = tested on: SKOV-3 human ovarian tumor cells; test: as above; type: cell-based; details: SKOV-3, 24 h exposure
Protocol: as §6, §7

[6] = tested on: panel of human and murine tumor cell lines; test: Cell growth inhibition, panel summary; type: cell-based; details: for IC50: 72 h; for cytotoxic concentration lower than that for antibacterial/antibiotic effect: versus concentrations used to inhibit bacterial cell growth
Protocol: Parallel studies were carried out to assess whether disruption of cell adhesion played a role in the cytotoxic activity.
as §1, §2

[7] = tested on: human Burkitt's lymphoma cell line, Daudi cell line; test: Killing of non-anchorage-dependent tumor cells in suspension culture; type: cell-based; details: 10-20 μM for 72 hours
Protocol: Two different non-anchorage-dependent tumor cell lines (a human Burkitt's lymphoma cell line, and a Daudi cell line), and precancerous cell line (a human myelodysplastic cell line) were grown in suspension culture.

[8] = tested on: advanced recurrent glioblastoma multiforma; test: Clinical use in tumor patients; type: in vivo, human
Protocol: Taurolidine was administered by i.p. lavage immediately following surgery for removal of recurrent ovarian tumors. For patients with glioblastoma, taurolidine was administered systemically.
Four patients, which were diagnosed with advanced recurrent glioblastoma multiforma, were treated with taurolidine. The prognosis for this group of patients was determined to be approximately 8 weeks of survival.

[9] = tested on: SKOV3 human ovarian tumor cell line; test: Mouse model of recurrent ovarian cancer, intraperitoneal lavage; type: in vivo, Holland Sprague-Dawley mice; details: i.p. lavage from 5 days after 5×10^6 tumor cells, 3 times a day for 4 days, 30 mg/day
Protocol: Holland Sprague-Dawley mice were injected with 5×10^6 tumor cells (e.g., SKOV3 human ovarian tumor cell line) to mimic a condition of advanced ovarian cancer. […] At least a 75-80% reduction in tumor foci was observed.

[10] = tested on: MDR-transfected glioblastoma cells; test: Cytotoxicity in drug resistant glioblastoma cells; details: 50 μM
Description: The neoplastic cell lines used in the survey were standard tumor cell lines, e.g., PA1 human ovarian cell line, SKOV3 human ovarian cell line, HT29 human colon tumor cell line, DU145 human prostate tumor cell line, U251 human glioblastoma cell line, U251-MDR human glioblastoma cell line transfected with DNA encoding MDR, T98G human glioblastoma cell line, SP-1 human leukemia cell line, and Daudi human leukemia cell line.
Glioblastoma cells were transfected with a gene encoding multiple drug resistance (MDR).

Which results are given for `O=S1(=O)CCN(CN2CCS(=O)(=O)NC2)CN1` [Taurolidine, Bis-(1,1-dioxoperhydro-1,2,4-thiadiazinyl-4)methane]?
IC50 (HT-29 colon tumor cells): 18.6 ± 1 µM; IC50 (MNT-1 melanoma cells): 22.1 ± 2.1 µM; IC50 (A-549 lung tumor cells): 26.8 ± 7.2 µM; IC50 (U-251 glioma cells): 20.1 ± 2.7 µM; IC50 (H-157 lung tumor cells): 32.2 ± 5.6 µM; IC50 [1]: 31.6 ± 7 µM; PARP cleavage (SKOV-3 cells): resulted in PARP cleavage; PARP cleavage (PA-1 cells): resulted in PARP cleavage; PARP cleavage (NIH-3T3 cells): little evidence of this proteolytic event; DNA fragmentation (3T3 cells): not apparent; concentrations required to inhibit cell proliferation ([2]; normal murine bone marrow): mM range; cytotoxicity ([2]; normal murine bone marrow cultures): not cytotoxic in the high μM range; cytotoxicity [3]: not cytotoxic in the high μM range; increase in Annexin-V binding [4]: 4 fold; increase in Annexin-V binding [5]: 3 fold; IC50 ([6]; 3 d exposure, panel of human and murine tumor cell lines, read-out: IC50s over all cell lines evaluated): 10 to 50 µM; IC50 ([6]; 3-day exposure, human cancer cell lines, read-out: concentration required to inhibit tumor cell growth (IC50)): 12.5 to 50 µM; cytotoxic concentration lower than that for antibacterial/antibiotic effect [6]: approximately 100 fold; cytotoxic concentration lower than that for antibacterial/antibiotic effect ([6]; listed as taurolidine): at least 1000 fold; cells died [7]: 50%; patients in whom the tumor mass decreased or stayed the same ([8]; 20 g i.v. over 6 hours twice a week, at least one 5 week regimen): 3 out of the 4; tolerability in patients ([8]; i.p. lavage (recurrent ovarian tumors) or systemic (glioblastoma)): well tolerated; survival after initiation of therapy, each patient alive ([8]; prognosis approximately 8 weeks): ≥ 14 weeks; reduction in tumor foci [9]: 75-80%; cytotoxicity [10]: Significant cytotoxicity
